Laboratory results published in the NIST ThermoML archive (doi:10.1016/j.jct.2017.06.001).

Experiment: xn = mol fraction of the nth substance listed
Conditions: 100 kPa, Liquid; for mass density: Vibrating tube method; for speed of sound: 288.15 K, Frequency=5 MHz, Pulse-echo method

OCCCCCO [1,5-pentanediol] + O
mass density [kg/m3]
Conditions | 278.15 K | 283.15 K
x1 = 0.005 | 999.89 | 999.55
x1 = 0.0101 | 1000.22 | 999.78
x1 = 0.0196 | 1001.39 | 1000.73
x1 = 0.0251 | 1002.34 | 1001.54
x1 = 0.0304 | 1003.39 | 1002.41
x1 = 0.05 | 1006.63 | 1005.19
x1 = 0.0769 | 1009.88 | 1007.89
x1 = 0.1002 | 1012.01 | 1009.64
x1 = 0.1438 | 1013.87 | 1011.18
x1 = 0.1845 | 1014.45 | 1011.58
x1 = 0.2503 | 1014 | 1010.96
x1 = 0.3 | 1013.14 | 1010.06
x1 = 0.3343 | 1012.59 | 1009.43
x1 = 0.4171 | 1010.69 | 1007.58
x1 = 0.454 | 1009.8 | 1006.71
x1 = 0.5003 | 1008.7 | 1005.6
x1 = 0.5362 | 1007.8 | 1004.7
x1 = 0.6177 | 1006 | 1003
x1 = 0.6478 | 1005.3 | 1002.3
x1 = 0.7025 | 1004.2 | 1001.2
x1 = 0.7504 | 1003.3 | 1000.3
x1 = 0.7927 | 1002.5 | 999.4
x1 = 0.8605 | 1001.1 | 998.1
x1 = 0.9004 | 1000.2 | 997.3
x1 = 0.9496 | 999.1 | 996.1
x1 = 1 | 998 | 995

Conditions | speed of sound [m/s]
x1 = 0.0001 | 1467
x1 = 0.0002 | 1467.6
x1 = 0.0004 | 1468.5
x1 = 0.0007 | 1469.7
x1 = 0.001 | 1471.1
x1 = 0.0013 | 1472.4
x1 = 0.0018 | 1474.5
x1 = 0.0025 | 1477.3
x1 = 0.0032 | 1480.3
x1 = 0.0039 | 1483.3
x1 = 0.0047 | 1486.5
x1 = 0.0053 | 1489.1
x1 = 0.0059 | 1491.7
x1 = 0.0066 | 1494.6
x1 = 0.0074 | 1497.4
x1 = 0.0079 | 1499.7
x1 = 0.0086 | 1502.2
x1 = 0.0092 | 1504.6
x1 = 0.0098 | 1507
x1 = 0.0105 | 1509.5
x1 = 0.0112 | 1512
x1 = 0.0118 | 1514.3
x1 = 0.0125 | 1516.8
x1 = 0.0131 | 1519
x1 = 0.0138 | 1521.4
x1 = 0.0144 | 1523.8
x1 = 0.0151 | 1526.1
x1 = 0.0157 | 1528.2
x1 = 0.0164 | 1530.5
x1 = 0.0171 | 1532.7
x1 = 0.0177 | 1535
x1 = 0.0184 | 1537.1
x1 = 0.0188 | 1538.3
x1 = 0.0193 | 1540.1
x1 = 0.0199 | 1541.8
x1 = 0.0204 | 1543.6
x1 = 0.021 | 1545.5
x1 = 0.0219 | 1548.2
x1 = 0.0226 | 1550.3
x1 = 0.0233 | 1552.4
x1 = 0.024 | 1554.5
x1 = 0.0247 | 1556.6
x1 = 0.0256 | 1559.3
x1 = 0.0266 | 1562.2
x1 = 0.0278 | 1565.4
x1 = 0.0289 | 1568.3
x1 = 0.0299 | 1571
x1 = 0.0309 | 1573.7
x1 = 0.0319 | 1576.4
x1 = 0.0331 | 1579.3
x1 = 0.0342 | 1582.3
x1 = 0.0353 | 1584.9
x1 = 0.0365 | 1587.7
x1 = 0.0376 | 1590.3
x1 = 0.0387 | 1592.9
x1 = 0.0398 | 1595.3
x1 = 0.0409 | 1597.9
x1 = 0.042 | 1600.2
x1 = 0.0431 | 1602.6
x1 = 0.0445 | 1605.6
x1 = 0.0456 | 1607.8
x1 = 0.0473 | 1611.2
x1 = 0.0482 | 1612.9
x1 = 0.049 | 1614.5
x1 = 0.0499 | 1616.2
x1 = 0.0513 | 1618.7
x1 = 0.0529 | 1621.5
x1 = 0.0547 | 1624.7
x1 = 0.0561 | 1627.2
x1 = 0.0576 | 1629.6
x1 = 0.0595 | 1632.6
x1 = 0.0613 | 1635.3
x1 = 0.0632 | 1638.1
x1 = 0.0654 | 1641.4
x1 = 0.0673 | 1644
x1 = 0.0692 | 1646.6
x1 = 0.0715 | 1649.5
x1 = 0.0744 | 1653
x1 = 0.0768 | 1655.8
x1 = 0.0796 | 1658.9
x1 = 0.0824 | 1661.8
x1 = 0.0856 | 1665
x1 = 0.0887 | 1667.9
x1 = 0.0921 | 1670.8
x1 = 0.0965 | 1674.4
x1 = 0.1006 | 1677.4
x1 = 0.1051 | 1680.5
x1 = 0.1102 | 1683.6
x1 = 0.1153 | 1686.5
x1 = 0.1208 | 1689.2
x1 = 0.1238 | 1690.6
x1 = 0.1303 | 1693.2
x1 = 0.1382 | 1696
x1 = 0.1442 | 1697.7
x1 = 0.1503 | 1699.3
x1 = 0.1556 | 1700.5
x1 = 0.1612 | 1701.6
x1 = 0.167 | 1702.6
x1 = 0.1694 | 1703
x1 = 0.1748 | 1703.7
x1 = 0.1799 | 1704.3
x1 = 0.1852 | 1704.8
x1 = 0.1903 | 1705.2
x1 = 0.1955 | 1705.6
x1 = 0.2007 | 1705.9
x1 = 0.2046 | 1706
